Patent US6936604B2, “Bridged bicyclic amino acid-derived [1,4]benzodiazepine vasopressin receptor antagonists” (Ortho-McNeil Pharmaceutical, Inc., priority 2001, dated 2005)
Marks after values point to notes of the source that are not given here.

Experiments:
human V2 receptor = biological target: T1, human V2 receptor (Homo sapiens, UniProt P30518); assay: In vitro recombinant vasopressin receptor binding assay (3H-arginine vasopressin displacement), V2; conditions: cloned human V2 receptor membranes, HEK-293 cells
T1 construct: expressed in transfected cells; host or cells: HEK-293
Procedure: (§1) In Vitro Recombinant Vasopressin Receptor Binding Assay
(§2) Compounds were assessed for their ability to displace ^3H-arginine vasopressin from the human V1a or V2 receptor in HEK-293 cells. Assay buffer is 50 mM Tris-Cl, 5 mM MgCl2, 0.1% BSA (pH 7.5) containing 5 μg/mL of aprotinin, leupeptin, pepstatin, 50 μg/mL bacitracin, and 1 mM Pefabloc. ^3H-vasopressin is ^3H-arginine-8-vasopressin (68.5 Ci/mmol, final concentration in assay is 0.65-0.75 nM). Into wells of 96-well round bottom polypropylene plates were added buffer, test compound, membrane (containing cloned human V1a or V2 receptor) and ^3H-vasopressin. The reaction plates were allowed to sit at room temperature for one hour. The samples were filtered through Unifilter GF/C plates (presoaked in 0.3 polyethyleneimine). The plates were washed 5 times with cold physiological saline containing 0.05% Tween 20. After drying, the bottom of the filter plates were sealed and 0.025 mL of Microscint-20 was added to each filter. The top of the plate was sealed, and the plate was counted.

human V1a receptor = biological target: T2, human V1a receptor (Homo sapiens, UniProt P37288); assay: In vitro recombinant vasopressin receptor binding assay (3H-arginine vasopressin displacement), V1a; conditions: cloned human V1a receptor membranes, HEK-293 cells
T2 construct: expressed in transfected cells; host or cells: HEK-293
Procedure: as §1, §2

[1] = tested on: conscious hydrated male rats; assay: Diuresis study, acute diuretic effect after oral administration; assay type: in vivo, Sprague Dawley rats; conditions: 4 hours urine collection, mean±SE
Procedure: The acute diuretic effect of compounds of the invention after oral administration was tested according to the procedure described herein.
Mature male Sprague Dawley rats, 200-300 gms, from Charles River Labs Inc. were housed one rat per cage, in a rodent room. Room temperature was maintained at […] and humidity at 30-70%. Room lighting was on a 12 hrs light/12 hrs dark cycle. Rats were fed laboratory rodent diet, #5001 (supplied from Purina Mills, St.Louis, Mo. via W. F. Fisher, Bound Brook, N.J.).
Four different concentrations of test compound were prepared. For each dose, compound was prepared as a uniform suspension in 0.5% methylcellulose vehicle using a water bath sonicator to ensure uniform suspension and dosed in a volume of 2 ml/kg.
All animals were fasted for 18 hours and weights were taken and recorded for each animal. Animals were dosed orally with drug via gavage needle. After oral dosing, animals were placed into metabolism racks for 4 hours. The urine was collected and the volume measured. Aliquots of 0.5 mL were stored at 4° C. for later analysis.
Each value represents the mean±SE. *Data has a p value of <0.05 versus vehicle using Dunnett's Multiple Comparison Test. **Data has a p value of <0.01 versus vehicle. ^aNumber of animals in parentheses represent the number of animals providing osmolality values (if different than the number of animals providing urine volume values).

T2 sequence (P37288 whole entry): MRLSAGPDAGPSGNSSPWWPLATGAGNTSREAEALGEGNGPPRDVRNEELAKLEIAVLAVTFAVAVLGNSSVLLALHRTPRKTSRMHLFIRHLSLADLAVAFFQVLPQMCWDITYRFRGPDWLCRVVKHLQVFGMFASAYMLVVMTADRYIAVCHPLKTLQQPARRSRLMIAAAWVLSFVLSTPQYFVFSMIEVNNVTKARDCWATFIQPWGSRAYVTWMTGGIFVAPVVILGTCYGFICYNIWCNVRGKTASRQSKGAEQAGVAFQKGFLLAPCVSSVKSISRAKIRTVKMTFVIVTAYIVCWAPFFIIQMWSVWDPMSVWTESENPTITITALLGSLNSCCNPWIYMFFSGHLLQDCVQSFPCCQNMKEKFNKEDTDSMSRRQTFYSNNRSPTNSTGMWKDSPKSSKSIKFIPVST

Compound | IC50 (human V2 receptor) | IC50 (human V1a receptor) | other results
Cc1ccc(F)cc1C(=O)Nc1ccc(C(=O)N2C[C@@H]3C4CCC(CC4)N3Cc3ccccc32)c(Cl)c1 [Compound 14, N-[4-[[(6aS)-6,6a,7,8,9,10-hexahydro-7,10-ethanopyrido[2,1-c][1,4]benzodiazepin-5(12H)-yl]carbonyl]-3-chlorophenyl]-5-fluoro-2-methyl-benzamide] | 19 nM |  | 
N-[4-[[(6aS)-2-chloro-6,6a,7,8,9,10-hexahydro-7,10-methanopyrido[2,1-c][1,4]benzodiazepin-5(12H)-yl]carbonyl]-3-chlorophenyl]-2-(trifluoromethyl)-benzamide [Compound 12] | 15 nM | 10 nM | 
O=C(Nc1ccc(C(=O)N2C[C@@H]3C4CCC(CC4)N3Cc3cc(Cl)ccc32)cc1)c1ccccc1Cl [Compound 15, N-[4-[[(6aS)-2-chloro-6,6a,7,8,9,10-hexahydro-7,10-ethanopyrido[2,1-c][1,4]benzodiazepin-5(12H)-yl]carbonyl]phenyl]-2-chloro-benzamide] | 35 nM | 13 nM | 
O=C(Nc1ccc(C(=O)N2C[C@H]3C4CCC(C4)N3Cc3ccccc32)c(Cl)c1)c1ccccc1-c1ccccc1 (stereo partly drawn) [Compound 5, N-[4-[[(6aR)-6,6a,7,8,9,10-hexahydro-7,10-methanopyrido[2,1-c][1,4]benzodiazepin-5(12H)-yl]carbonyl]-3-chlorophenyl]-[1,1′-biphenyl]-2-carboxamide] | 15 nM |  | Urine Osmolality ([1]; 0.3 mg/Kg oral): 408 ± 37* mOsm/kg; Urine Volume ([1]; 0.3 mg/Kg oral): 1.4 ± 0.1* mL; Urine Osmolality ([1]; 1.0 mg/Kg oral): 303 ± 29* mOsm/kg; Urine Volume ([1]; 1.0 mg/Kg oral): 3.4 ± 0.4* mL; Urine Osmolality ([1]; 3.0 mg/Kg oral): 238 ± 18* mOsm/kg; Urine Volume ([1]; 3.0 mg/Kg oral): 9.4 ± 1.1* mL; Urine Osmolality ([1]; 10 mg/Kg oral): 172 ± 9* mOsm/kg; Urine Volume ([1]; 10 mg/Kg oral): 19.5 ± 1.4* mL
O=C(Nc1ccc(C(=O)N2C[C@@H]3C4CCC(C4)N3Cc3ccccc32)c(Cl)c1)c1ccccc1-c1ccccc1 (mixture of isomers) [Compound 3, N-[4-[[(6aS)-6,6a,7,8,9,10-hexahydro-7,10-methanopyrido[2,1-c][1,4]benzodiazepin-5(12H)-yl]carbonyl]-3-chlorophenyl]-[1,1′-biphenyl]-2-carboxamide] | 15 nM |  | 
O=C(Nc1ccc(C(=O)N2C[C@@H]3C4CCC(C4)N3Cc3cc(Cl)ccc32)cc1)c1ccccc1Cl (stereo partly drawn) [Compound 11, N-[4-[[(6aS)-2-chloro-6,6a,7,8,9,10-hexahydro-7,10-methanopyrido[2,1-c][1,4]benzodiazepin-5(12H)-yl]carbonyl]phenyl]-2-chloro-benzamide] | 7 nM | 4 nM | 
O=C(Nc1ccc(C(=O)N2C[C@@H]3C4CCC(C4)N3Cc3ccccc32)c(Cl)c1)c1ccccc1-c1ccccc1 (stereo partly drawn) [Compound 4, N-[4-[[(6aS)-6,6a,7,8,9,10-hexahydro-7,10-methanopyrido[2,1-c][1,4]benzodiazepin-5(12H)-yl]carbonyl]-3-chlorophenyl]-[1,1′-biphenyl]-2-carboxamide] | 4 nM | 24 nM | Urine Osmolality ([1]; 0.3 mg/Kg oral): 444 ± 79* mOsm/kg; Urine Volume ([1]; 0.3 mg/Kg oral): 2.5 ± 0.3 mL; Urine Osmolality ([1]; 1.0 mg/Kg oral): 299 ± 34* mOsm/kg; Urine Volume ([1]; 1.0 mg/Kg oral): 6.0 ± 0.7* mL; Urine Osmolality ([1]; 3.0 mg/Kg oral): 180 ± 9* mOsm/kg; Urine Volume ([1]; 3.0 mg/Kg oral): 15.1 ± 1.4* mL; Urine Osmolality ([1]; 10 mg/Kg oral): 138 ± 11* mOsm/kg; Urine Volume ([1]; 10 mg/Kg oral): 29.9 ± 2.0* mL
O=C(Nc1ccc(C(=O)N2C[C@@H]3C4CCC(C4)N3Cc3cc(Cl)ccc32)cc1)c1ccccc1-c1ccc(F)cc1 (stereo partly drawn) [Compound 9, N-[4-[[(6aS)-2-chloro-6,6a,7,8,9,10-hexahydro-7,10-methanopyrido[2,1-c][1,4]benzodiazepin-5(12H)-yl]carbonyl]phenyl]-4′-fluoro-[1,1′-biphenyl]-2-carboxamide] | 26 nM | 68 nM | 
O=C(Nc1ccc(C(=O)N2C[C@@H]3C4CCC(CC4)N3Cc3ccccc32)c(Cl)c1)c1ccccc1-c1ccccc1 [Compound 13, N-[4-[[(6aS)-6,6a,7,8,9,10-hexahydro-7,10-ethanopyrido[2,1-c][1,4]benzodiazepin-5(12H)-yl]carbonyl]-3-chlorophenyl]-[1,1′-biphenyl]-2-carboxamide] | 24 nM |  | 
O=C(Nc1ccc(C(=O)N2C[C@@H]3C4CCC(C4)N3Cc3cc(Cl)ccc32)cc1)c1ccccc1F (stereo partly drawn) [Compound 10, N-[4-[[(6aS)-2-chloro-6,6a,7,8,9,10-hexahydro-7,10-methanopyrido[2,1-c][1,4]benzodiazepin-5(12H)-yl]carbonyl]phenyl]-2-fluoro-benzamide] | 10 nM | 5 nM | 
Cc1ccc(-c2ccccc2C(=O)Nc2ccc(C(=O)N3C[C@@H]4C5CCC(CC5)N4Cc4cc(Cl)ccc43)cc2)cc1 [Compound 16, N-[4-[[(6aS)-2-chloro-6,6a,7,8,9,10-hexahydro-7,10-ethanopyrido[2,1-c][1,4]benzodiazepin-5(12H)-yl]carbonyl]phenyl]-4′-methyl-[1,1′-biphenyl]-2-carboxamide] | 72 nM | 59 nM | 
Cc1ccc(-c2ccccc2C(=O)Nc2ccc(C(=O)N3C[C@@H]4C5CCC(C5)N4Cc4ccccc43)c(Cl)c2)cc1 (stereo partly drawn) [Compound 7, N-[4-[[(6aS)-6,6a,7,8,9,10-hexahydro-7,10-methanopyrido[2,1-c][1,4]benzodiazepin-5(12H)-yl]carbonyl]-3-chlorophenyl]-4′-methyl-[1,1′-biphenyl]-2-carboxamide] | 3 nM | 35 nM | 
Cc1ccc(-c2ccccc2C(=O)Nc2ccc(C(=O)N3C[C@@H]4C5CCC(C5)N4Cc4cc(Cl)ccc43)cc2)cc1 (stereo partly drawn) [Compound 6, N-[4-[[(6aS)-2-chloro-6,6a,7,8,9,10-hexahydro-7,10-methanopyrido[2,1-c][1,4]benzodiazepin-5(12H)-yl]carbonyl]phenyl]-4′-methyl-[1,1′-biphenyl]-2-carboxamide] | 5 nM | 24 nM | Urine Osmolality ([1]; 1.0 mg/Kg oral): 387 ± 15 mOsm/kg; Urine Volume ([1]; 1.0 mg/Kg oral): 2.9 ± 0.2 mL; Urine Osmolality ([1]; 3.0 mg/Kg oral): 226 ± 9** mOsm/kg; Urine Volume ([1]; 3.0 mg/Kg oral): 5.8 ± 0.5** mL; Urine Osmolality ([1]; 10 mg/Kg oral): 159 ± 9** mOsm/kg; Urine Volume ([1]; 10 mg/Kg oral): 17.8 ± 1.3** mL
O=C(Nc1ccc(C(=O)N2CC3C4CCC(CC4)N3Cc3ccccc32)c(Cl)c1)c1ccccc1-c1ccccc1 (racemic) [Compound 2, N-[4-[(6,6a,7,8,9,10-hexahydro-7,10-ethanopyrido[2,1-c][1,4]benzodiazepin-5(12H)-yl)carbonyl]-3-chlorophenyl]-[1,1′-biphenyl]-2-carboxamide] | 4 nM |  | 
